Laboratory results reported in ChEMBL document CHEMBL1201862, “PubChem BioAssay data set” (2004).
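Growth conditions: 96-well plates. Treatment: test compound, 48 hours, 5 concentrations. Analysis: linear interpolation between bracketing concentrations; unreached endpoints set to highest concentration. Abbreviation: GI50, concentration required for 50% inhibition of growth.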 Activity calls are given as the source filed them. No stated cut-off is given here; in the data, active = GI50 up to about 1.1 µM and inactive = higher.

Legend:
Assay in all cases: inhibition of tumour cell growth, NCI panel, 48 h
KM12 = test system: KM12
NCI-H226 = test system: NCI-H226
SR = test system: SR
EKVX = test system: EKVX
T47D = test system: T47D
UACC-62 = test system: UACC-62
OVCAR-5 = test system: OVCAR-5
SK-MEL-5 = test system: SK-MEL-5
DU-145 = test system: DU-145
SW-620 = test system: SW-620
K562 = test system: K562
A498 = test system: A498
RPMI-8226 = test system: RPMI-8226
Hs-578T = test system: Hs-578T
M14 = test system: M14
MCF7 = test system: MCF7
U-251 = test system: U-251
SF-539 = test system: SF-539
HOP-62 = test system: HOP-62
Malme-3M = test system: Malme-3M

| SMILES | GI50 (KM12) | GI50 (NCI-H226) | GI50 (SR) | GI50 (EKVX) | GI50 (T47D) | GI50 (UACC-62) | GI50 (OVCAR-5) | GI50 (SK-MEL-5) | GI50 (DU-145) | GI50 (SW-620) | GI50 (K562) | GI50 (A498) | GI50 (RPMI-8226) | GI50 (Hs-578T) | GI50 (M14) | GI50 (MCF7) | GI50 (U-251) | GI50 (SF-539) | GI50 (HOP-62) | GI50 (Malme-3M) |
| --- | --- | --- | --- | --- | --- | --- | --- | --- | --- | --- | --- | --- | --- | --- | --- | --- | --- | --- | --- | --- |
| O=C(CSc1nc2ccc(I)cc2c(=O)n1Cc1ccccc1)NNC(=S)Nc1ccccc1 | 34.4 µM (inactive) | 6.53 µM (inactive) | 3.1 µM (inactive) | 1.73 µM (inactive) | 23.5 µM (inactive) | 33.4 µM (inactive) | > 100 µM (inactive) | 13.8 µM (inactive) | > 100 µM (inactive) | 33.6 µM (inactive) | 11.3 µM (inactive) | 3.55 µM (inactive) | 12.6 µM (inactive) | 7.78 µM (inactive) | 62.2 µM (inactive) | 22.5 µM (inactive) | 6.24 µM (inactive) |  |  |  |
| COC(=O)c1ccc2c(c1)CC1(C2)Cc2ccc3c(c2C1)CCC3 (stereo not given) | 12.6 µM (inactive) | 47.6 µM (inactive) | 20.8 µM (inactive) | 51.3 µM (inactive) | 14.3 µM (inactive) | 14.6 µM (inactive) | > 100 µM (inactive) | 14.3 µM (inactive) | 53.6 µM (inactive) | 14.4 µM (inactive) | 6.64 µM (inactive) |  | 21.3 µM (inactive) | 37.9 µM (inactive) | 0.574 µM (active) | 23.3 µM (inactive) | 28.7 µM (inactive) | 47.8 µM (inactive) | 29.9 µM (inactive) | 17.4 µM (inactive) |
| O=[N+]([O-])c1cc2[nH]nnc2c2nonc12 | 33 µM (inactive) | 19.3 µM (inactive) | 6.08 µM (inactive) | 65.8 µM (inactive) | > 100 µM (inactive) | > 10 µM (inactive) | 29 µM (inactive) | 11.9 µM (inactive) | 33.3 µM (inactive) | 30.7 µM (inactive) | 22.8 µM (inactive) |  | 24 µM (inactive) | 17.4 µM (inactive) | 22.4 µM (inactive) | 3.24 µM (inactive) | 28.4 µM (inactive) | 22.8 µM (inactive) | 55 µM (inactive) | 35.2 µM (inactive) |
| COc1cc(C[C@@H](C)N)cc(OC)c1 | > 100 µM (inactive) | > 100 µM (inactive) | > 100 µM (inactive) |  | > 100 µM (inactive) | > 100 µM (inactive) | > 100 µM (inactive) | > 100 µM (inactive) | > 100 µM (inactive) | > 100 µM (inactive) | > 100 µM (inactive) | > 100 µM (inactive) | > 100 µM (inactive) | > 100 µM (inactive) | > 100 µM (inactive) | > 100 µM (inactive) | > 100 µM (inactive) | > 100 µM (inactive) | > 100 µM (inactive) | > 100 µM (inactive) |
| CCCCCCCCCCCCCCCCCCNc1ccn(C2OC(COP(=O)(O)OCCCCCCCCCCCCCCCC)C(O)C2O)c(=O)n1 (stereo not given) | > 100 µM (inactive) | > 100 µM (inactive) | > 100 µM (inactive) | > 100 µM (inactive) | > 100 µM (inactive) | > 100 µM (inactive) | > 100 µM (inactive) |  | > 100 µM (inactive) | > 100 µM (inactive) | > 100 µM (inactive) | > 100 µM (inactive) | > 100 µM (inactive) | 83.8 µM (inactive) | > 100 µM (inactive) | > 100 µM (inactive) | > 100 µM (inactive) | > 100 µM (inactive) | > 100 µM (inactive) |  |
| CCCCCCCCC/C=C1/CC(CO)(COC(=O)CC(C(C)C)C(C)C)OC1=O (stereo not given) | 8.85 µM (inactive) | 6.07 µM (inactive) | 17.8 µM (inactive) | 4.35 µM (inactive) | 4.91 µM (inactive) | 12.5 µM (inactive) | 12.1 µM (inactive) | 3.16 µM (inactive) | 12.4 µM (inactive) | 1.16 µM (inactive) | 0.36 µM (active) | 3.14 µM (inactive) |  | 0.109 µM (active) | 2.39 µM (inactive) | 9.23 µM (inactive) | 11.9 µM (inactive) | 10.2 µM (inactive) | 1.12 µM (inactive) | 0.515 µM (active) |
| C/C=C1/CN2CCC34c5ccccc5N5C(=O)C(C6CC78c9ccccc9N9C(=O)C=CC(C%10CC7N6C/C%10=C/C)C98)=CC(C1CC23)C54 (stereo not given) | 9.55 µM (inactive) | 7.13 µM (inactive) | 0.667 µM (active) | 6.64 µM (inactive) | 11.1 µM (inactive) | 7.69 µM (inactive) | 10.2 µM (inactive) | 5.83 µM (inactive) | 7.71 µM (inactive) | 1.59 µM (inactive) | 1.62 µM (inactive) | 8.81 µM (inactive) |  | 8.11 µM (inactive) | 5.52 µM (inactive) | 2.13 µM (inactive) | 5.92 µM (inactive) | 1.11 µM (active) | 8.59 µM (inactive) | 7.82 µM (inactive) |
